Read-outs that look alike come from different tables or passages of the source.
How the values were obtained:
[1] = tested on: isolated papillary muscles; assay: Contractile force of isolated papillary muscles; parameters: species or system cat (female); details: Felis catus, isolated cat papillary muscles, read-out: Maximum Contractile Force (increase); for activation at 10 µg/mL: 1.0 × 10^-5 g/ml
Protocol: (2) The contractile force of isolated papillary muscles was tested according to the method described in Basic Lectures of Medicine Development, Volume V, Pharmacological Test Methods, Part 2, page 535 (1971). A female cat (having a body weight of about 3.5 kg) was anaesthetized with ether-chloroform gas and exsanguinated. The chest of each cat was opened and the heart was excised, rinsed with Krebs-Henseleitsolution (prepared by adding distilled water to 6.92 g of sodium chloride, 0.35 g of calcium chloride, 0.29 g of magnesium sulfate, 0.16 g of mono-basic potassium phosphate, 2.1 g of sodium bicarbonate and 1.8 g of glucose so that the total amount was 1 l) and one or more small, thin papillary muscles from the right ventricule were dissected. Then papillary muscles were mounted in 20 ml Magnus' bath containing Krebs-Henseleit solution bubbled with oxygen gas at a temperature of 30±1° C. The papillary muscles were stimulated electrically at the rate of 2 beat/sec. and a voltage of 20% above threshold. The developed tension of the muscles was recorded isometrically on recorder by the use of force displacement tansducers.

[2] = tested on: ventricular muscle and heart rate, anaesthetized dog; assay: Contractile force of ventricular muscle and heart rate of anaesthetized dog; assay type: in vivo, dog (male); details: for Heart Rate (up): infused i.v. 320 μg/kg/minute, anaesthetized dog; for Contractile Force of Ventricular Muscles (increase): infused i.v. (left femoral vein) 320 μg/kg/minute until maximum inotropic effect
Protocol: (4) The contractile force of ventricular muscle and heart rate in anaesthetized dog was tested according to the method described in Basic Lectures of Medicine Development, Volume V, Pharmacological Test Methods, Part 2, page 544 (1971). A male dog (having a body weight of about 12-14 kg) was anaesthetized with 40 mg/kg body weight of pentobarbital sodium (i.p.). Supplemental dose of pentobarbital was administered whenever necessary. An intra-tracheal cannula was inserted and ventilation was carried out by means of Harvard constant-volume, positive pressure pump using room air. The chest was opened by a midline incision and the heart was suspended in the pericardial cradle. The contratile force of the myocardium was measured by means of Walton-Brodie type strain-gauge arch sutured onto the left ventricle. Systemic blood pressure was measured from the left femoral artery by a pressure transducer and heart rate was calculated by blood pressure pulses. Sample compounds were infused into the left femoral vein at a rate of 320 μg/kg/minute until a maximum inotropic effect is obtained.

isolated atria = assay: Contractile force of isolated atria; parameters: species or system guinea pig (male Hartley); details: Cavia porcellus; 50.0 μg/ml, isolated guinea pig atria; read-out: Maximum Contractile Force (increase)
Protocol: The pharmacological effects of the compound of the following general formula I will now be described: [drawing 9] wherein R1, R2 and R3 are as defined above. (1) The contractile force of isolated atria was tested according to the method of L. J. Macleod described in Pharmacological Experiments on Intact Preparations, pages 112-115 (1970). A 7-weeks-old male Hartley guinea pig (having a body weight of about 350 g) was killed by a blow on the head. The chest was opened and the heart was removed as quickly as possible and placed in Ringer-Locke solution (prepared by adding distilled water to 9.0 g of sodium chloride, 0.25 g of potassium chloride, 0.15 g of calcium chloride and 1.0 g of glucose so that the total amount was 1,000 ml) at room temperature. All other tissues was cut away until nothing was left except the atria. Threads were tied to each tip of the atria and the preparation thus obtained was mounted in Ringer-Locke solution at 30±1° C., through which a brisk stream of pure oxygen was bubbled. One thread was attached to a fixed pin in the Magnus' bath and the other to a force-displacement transducer connected to an electrical amplifier and recorder. When the rate and amplitude became constant, recording was started. After 1 minute, the solution of sample compound was injected and recording was conducted for 2 minutes. After completion of recording, the isolated atria was washed with Ringer-Locke solution until the rate and amplitude became constant. After 15 minutes, recording was started again.

coronary blood flow = assay: Coronary-vasodilating action (Langendorff's method); parameters: species or system guinea pig (male Hartley); details: Cavia porcellus; for activation at 0.1 mg: dose 100 μg
Protocol: (3) The coronary-vasodilating effect was tested according to the method disclosed in Basic Lectures of Medicine Development, Volume V, Pharmacological Test Methods, Part 2, page 537 (1971). A 7-weeks-old male Hartley guinea pig (having a body weight of about 350 g) was used. And the measurement was carried out under a perfusion pressure of about 60 mmHg according to the Langendorff's method by using as a nutrient solution a Krebs' solution. The incubation temperature was 37° C.

[3] = tested on: systolic blood pressure and heart rate, rats; assay: Effect on systolic blood pressure and heart rate (indirect tail-cuff method); assay type: in vivo, rat (male Wistar); details: 25 mg/kg p.o.
Protocol: Male Wister rats (having a body weight of about 350 g) were used. Systolic blood pressure and heart rate were measured in rats by indirect tail-cuff method, using a programmed electrosphymomanometer.

platelet aggregation = assay: Inhibition of platelet aggregation; assay type: cell-based, rat (male Wistar); details: Rattus norvegicus, 83.0 μg/ml
Protocol: (5) The inhibition of platelet aggregation was determined according to the method of Yamazaki [Hiroo Yamazaki, Clinical Inspections, 22, (9) 935-943 (1978)]. Eleven-weeks-old male Wistar rats (having a body weight of about 350 g) were used. Blood was drawn by venupuncture in the […]. Nine fold volume of blood was drawn, with mixing, into a syringe containing one volume of 3.1% (W/V) sodium citrate. Platelet-rich-plasma (PRP) was collected as the supernatant after centrifuging the citrated blood at 1,000 rpm for 10 min. Platelet-poor-plasma (PPP) was the resulting supernatant after the residual citrated blood was additionally centrifuged at 3,000 rpm for 10 min. Each 210 μl aliquot of PPP and PRP was placed in cuvette and stirred at 37° C. in aggregometer. The aggregation reactions were determined by changes in light transmissions. A 20 μl sample was injected into PRP in the aggregometer, and 1-2 min. later, a 20 μl aggregation stimulant was injected. Aggregation pattern and maximal aggregation rate of each sample were compared with those of control. 100 μM of ADP (adenosine-5'-diphosphate or 100 μg/ml of collagen was used as the aggregation stimulant. The obtained results are shown in Table 5.

[4] = tested on: smooth muscle of bronchus; assay: Bronchodilation effect (tracheal ring chain); parameters: species or system guinea pig (male Hartley)
Protocol: (7) The bronchodilation effect was tested according to the method of L. J. Macleod in Pharmacological Experiments on Intact Preparations, Pages 100-103 (1970). A 7-weeks-old, male Hartley guinea pig (having a body weight of about 350 g) was killed by a blow on the head and cutting the throat. The trachea was dissected out and transferred into Krebs' solution. The excessive tissue was removed and the trachea was cut transversely with great care not to damage smooth muscle, to form at least 5 tracheal rings which are tied together so as to form chain. One thread was attached to a fixed pin in the Magnus' bath and the other, to a force-displacement transducer connected to an electrical amplifier and recorder. Experiments with this preparation were performed at 37±1° C. in Krebs' solution through which O2 plus 5% CO2 was bubbled. The sample compound was injected and the recording was conducted for 4 minutes. After completion of the recording, the sample was washed out with Krebs' solution until the base line became stable. After 30 to 50 minutes, the recording was started again.

[5] = Acute toxicity (Litchfield-Wilcoxon method); details: mouse, in vivo, iv; tail vein, 6-weeks-old male ddY mice
Protocol: The acute toxicity of the compound of the general formula I was determined according to the Litchfield-Wilcoxon method [J. Pharm. Exp. Ther., 96, 99 (1949)] using 6-weeks-old male ddY mice (having a body weight of 19 to 24 g) while administrating the sample compound in the tail vein.

[6] = read-out: Coronary Blood Flow Increase Ratio, Maximum Increase Ratio of Sample
[7] = 0.5 h, dose 500 μg, 30 minutes, read-out: Coronary Blood Flow Increase Ratio, 30 Minutes after Administration
[8] = dose 500 μg, read-out: Coronary Blood Flow Increase Ratio, Maximum Increase Ratio of Sample

SMILES | activation at 50 µg/mL (isolated atria) [%] | activation at 0.5 mg (coronary blood flow; [7]) [%] | activation at 0.5 mg (coronary blood flow; [8]) [%] | Blood Pressure (systolic), direction of change [3] | Heart Rate (up) [3] [%] | other results
Nc1cc(-c2ccncc2)c[nH]c1=O [amrinone, reference compound] | – | – | – | – | – | activation at 100 µg/mL ([1]; 1.0 × 10^-4 g/ml): 77%; activation at 10 µg/mL [1]: 17%; Heart Rate (up) [2]: 25%; Contractile Force of Ventricular Muscles (increase) [2]: 25%
CC1=C(c2ccncc2)SCC(=O)N1C [R1 = CH3, R2 = CH3, R3 = H, 4,5-dimethyl-6-(4-pyridinyl)-2H-1,4-thiazin-3-one] | 18 | – | – | – | – | activation at 0.1 mg (coronary blood flow; 0.5 h, 30 minutes, read-out: Coronary Blood Flow Increase Ratio, 30 Minutes after Administration): 8%; activation at 0.1 mg (coronary blood flow; [6]): 28%
CC(C)NCC(O)c1ccc(O)c(O)c1 (centres unmarked) [isoproterenol, reference compound] | 40 | – | – | – | – | –
O=NO [Sodium nitrite, reference compound] | – | – | – | – | – | activation at 0.5 mg (coronary blood flow; 0.5 h, read-out: Coronary Blood Flow Increase Ratio, 30 Minutes after Administration): 5%; activation at 0.5 mg (coronary blood flow; [6]): 20%
Cn1c(=O)c2[nH]cnc2n(C)c1=O [Theophylline, reference compound] | – | -10 | 32 | increase | 29 | –
CC1=C(C2CCNCC2)SCC(=O)N1 [By-product, 5-methyl-6-(4-piperidinyl)-2H-1,4-thiazin-3(4H)-one] | 5 | 5 | 12 | – | – | –
CC1=C(c2ccncc2)SCC(=O)N1 [R1 = H, R2 = CH3, R3 = H, 5-methyl-6-(4-pyridinyl)-2H-1,4-thiazin-3(4H)-one] | 40 | 10 | 71 | decrease | 19 | activation at 10 µg/mL [1]: 61%; activation at 1 µg/mL ([1]; 1.0 × 10^-6 g/ml): 27%; Heart Rate (up) [2]: 30%; Contractile Force of Ventricular Muscles (increase) [2]: 170%; inhibition at 83 µg/mL (platelet aggregation; stimulant 100 μM ADP, read-out: Aggregation Inhibition Ratio, ADP): 80%; inhibition at 83 µg/mL (platelet aggregation; stimulant 100 μg/ml collagen, read-out: Aggregation Inhibition Ratio, Collagen): 100%; Influence of Smooth Muscle of Bronchus (relaxed by) [4]: ≥ 0.13 m/m; LD50 [5]: 165 to 200 mg/kg
Cc1[nH]c(=O)c(C#N)cc1-c1ccncc1 [Milrinone] | – | – | – | decrease | 51 | –

From patent publication US4565813A, “1,4-Thiazine derivatives” (Zenyaku Kogyo Kabushiki Kaisha, priority 1983, dated 1986)
